The text below walks through data of patent publication US20080008773A1, “Food beverage or feed for the promotion of osteogenesis comprising umbelliferae, liliaceae or compositae plant species” (priority 2002, published 2008).

One assay relates to MC3T3-E1 cells. Kind of assay: Induction of differentiation of MC3T3-E1 cells into osteoblasts (alkaline phosphatase as index). The assay is classed as cell-based, Mouse. As for the experimental part: (§1) (1) Mouse interstitial cell strain ST-2 was suspended in DMEM medium (manufactured by Bio Whittaker) containing 10% fetal bovine serum (manufactured by Bio Whittaker) so as to have a concentration of 3×10^4 cells/ml. The suspension was put to a 96-well plate in an amount of 0.1 ml per well, and the cells were cultured sterilely. After the cells were cultured for 2 days, the medium was exchanged with a fresh medium. The compound a derived from root portions of Angelica keiskei koidz. obtained in Example 1 was added thereto as a sample, and the cells were cultured for 3 days. Subsequently, differentiation of ST-2 cells into osteoblasts was measured using alkaline phosphatase as an index. The cells were washed once with PBS, 100 μl of a reaction substrate solution (100 mM diethanolamine buffer, pH 10.0, 2 mM magnesium chloride, 1 mM p-nitrophenyl phosphate) was added thereto, and the reaction was carried out at 37° C. for 30 minutes. Next, the reaction was terminated with adding 100 μl of 0.2 N sodium hydroxide, and the amount of p-nitrophenol which was released was determined by determining absorbance at 405 nm. The activity for induction of differentiation into osteoblasts was shown by setting a group without addition of the sample as a control, and defining alkaline phosphatase activity of the control as 100%. The experiments were carried out twice, and the average was taken.
Mouse pre-osteoblast strain MC3T3-E1 was suspended in DMEM medium containing 10% fetal bovine serum so as to have a concentration of 3×10^4 cells/ml. The suspension was put to a 96-well plate in an amount of 0.1 ml per well, and the cells were cultured sterilely. After the cells were cultured for 2 days, the medium was exchanged with a fresh medium. The compound a derived from root portions of Angelica keiskei koidz. obtained in Example 1 was added thereto as a sample, and the cells were cultured for 5 days. Subsequently, the differentiation into osteoblasts was determined using alkaline phosphatase as an index in the same manner as in Example 2.

Another assay deals with ST-2 cells. Kind of assay: Induction of differentiation of ST-2 cells into osteoblasts (alkaline phosphatase as index). It counts as cell-based, Mouse. Here is the method:
as §1

Turning to `CC12CCC(O)C(C)(C)C1Cc1c(O)ccc(C(=O)/C=C/c3ccc(O)cc3)c1O2` (single isomer, unassigned) [Compound a, (E)-1-(5,6,7,8,8a,10a-hexahydro-1,7-dihydroxy-8,8,10a-trimethyl-9H-xanthen-4-yl)-3-(4-hydroxyphenyl)-2-propen-1-one], the “Induction of differentiation into osteoblasts (in words)” value with MC3T3-E1 cells is “induces the differentiation into osteoblasts in a concentration-dependent manner”; in the assay on ST-2 cells, “induces differentiation into osteoblasts in a concentration-dependent manner”. The activity at 1.25 µM in the assay on MC3T3-E1 cells (Mus musculus, 120 h, 1.25 μM, cultured 5 days, control = 100%) turned out to be 171%; with ST-2 cells (Mus musculus, 72 h, 1.25 μM, cultured 3 days, control without sample = 100%) it was 358%. Besides, the activity at 2.5 µM in the assay on MC3T3-E1 cells (Mus musculus, 120 h, 2.5 μM, cultured 5 days, control = 100%) amounted to 292%. The activity at 0.313 µM in the assay with ST-2 cells (Mus musculus, 72 h, 0.313 μM, cultured 3 days, control without sample = 100%) was 219%. In addition, the activity at 0.625 µM in the assay on ST-2 cells (Mus musculus, 72 h, 0.625 μM, cultured 3 days, control without sample = 100%) was 260%.
